# Test results from publication PMC5648515, “A novel small molecule inhibitor of p32 mitochondrial protein overexpressed in glioma” (Journal of Translational Medicine, 2017).
# Biological target: T1, p32 (C1qBP) (Homo sapiens, UniProt Q07021)
# T1 construct: Human recombinant p32 (OriGene)
# T1 sequence (Q07021 74-282): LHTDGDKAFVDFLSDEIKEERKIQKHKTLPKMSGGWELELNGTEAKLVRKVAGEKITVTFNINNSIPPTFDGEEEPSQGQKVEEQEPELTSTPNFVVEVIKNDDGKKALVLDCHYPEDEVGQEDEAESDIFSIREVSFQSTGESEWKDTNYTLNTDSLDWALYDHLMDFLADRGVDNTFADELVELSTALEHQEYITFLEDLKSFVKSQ
# Experiment: fluorescence polarization competition with 5-FAM-labelled cyclic LyP-1 peptide; protein thermal shift with […] M36
# Type: binding
structure (smiles),measurement,value
O=C(NCCCNC(=O)Nc1cccc(C2=NCCN2)c1)Nc1cccc(C2=NCCN2)c1 [M36],p32 thermal shift stability change,P32 protein stability was altered by M36 as observed by a shift in the melting curve of the protein
